# Where “and” joins values, the source holds several entries; their conditions need not be identical. Equal values may be shown once. Marks after values point to notes of the source that are not given here.
# Columns and labels:
# [1] = tested on: MDA-MB-231 human breast cancer cells; experiment: MTT assay for antiproliferative effects in MDA-MB-231; type: cell-based; conditions: MDA-MB-231, MTT assay
# [2] = tested on: MDA-MB-231 human breast cancer cells; experiment: Lactate dehydrogenase (LDH) cytotoxicity assay in MDA-MB-231; type: cell-based; conditions: % cell lysis at 10 μM
# In short: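 Cells seeded at 1 × 10^4 per well and grown 24 h, then dosed with compounds over 1 nM–50 μM. Cell lysis quantified as released cytoplasmic LDH using the CytoTox 96 nonradioactive cytotoxicity assay.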
# MOLT-4 = experiment: NCI 60 cell line screen; type: cell-based, human; conditions: MOLT-4 (Leukemia)
# A549/ATCC = experiment: NCI 60 cell line screen; type: cell-based, human; conditions: A549/ATCC (Non-Small Cell Lung Cancer)
# HOP-92 = experiment: NCI 60 cell line screen; type: cell-based, human; conditions: HOP-92 (Non-Small Cell Lung Cancer)
# NCI-H332M = experiment: NCI 60 cell line screen; type: cell-based, human; conditions: NCI-H332M (Non-Small Cell Lung Cancer)
# NCI-H460 = experiment: NCI 60 cell line screen; type: cell-based, human; conditions: NCI-H460 (Non-Small Cell Lung Cancer)
# NCI-H552 = experiment: NCI 60 cell line screen; type: cell-based, human; conditions: NCI-H552 (Non-Small Cell Lung Cancer)
# COLO 205 = experiment: NCI 60 cell line screen; type: cell-based
# HCT-2998 = experiment: NCI 60 cell line screen; type: cell-based, human; conditions: HCT-2998 (Colon Cancer)
# HCT-116 = experiment: NCI 60 cell line screen; type: cell-based, human; conditions: HCT-116 (Colon Cancer)
# KM12 = experiment: NCI 60 cell line screen; type: cell-based, human; conditions: KM12 (Colon Cancer)
# SF-268 = experiment: NCI 60 cell line screen; type: cell-based, human; conditions: SF-268 (CNS Cancer)
# PC-3 = experiment: NCI 60 cell line screen; type: cell-based, human; conditions: PC-3 (Prostate cancer)
# DU-145 = experiment: NCI 60 cell line screen; type: cell-based, human; conditions: DU-145 (Prostate cancer)
# SK-MEL-28 = experiment: NCI 60 cell line screen; type: cell-based, human; conditions: SK-MEL-28 (Melanoma); one-dose 10 µM
# OVCAR-3 = experiment: NCI 60 cell line screen; type: cell-based, human; conditions: OVCAR-3 (Ovarian Cancer); one-dose 10 µM
# OVCAR-4 = experiment: NCI 60 cell line screen; type: cell-based, human; conditions: OVCAR-4 (Ovarian Cancer); one-dose 10 µM
# OVCAR-5 = experiment: NCI 60 cell line screen; type: cell-based, human; conditions: OVCAR-5 (Ovarian Cancer); one-dose 10 µM
# 786-0 = experiment: NCI 60 cell line screen; type: cell-based, human; conditions: 786-0 (Renal Cancer); one-dose 10 µM
# MCF-7 = experiment: NCI 60 cell line screen; type: cell-based; conditions: Homo sapiens
# BT-549 = experiment: NCI 60 cell line screen; type: cell-based, human; conditions: BT-549 (Breast Cancer); one-dose 10 µM
# MDA-MB-468 = experiment: NCI 60 cell line screen; type: cell-based, human; conditions: MDA-MB-468 (Breast Cancer); one-dose 10 µM
# [3] = Homo sapiens, 60 cell, five-dose screen
structure (smiles),measurement,setting,value
"CCC(=C(c1ccc(O)cc1)c1ccc(OCCN(C)C(=O)/C(=C/c2ccc(OC)c(O)c2)c2cc(OC)c(OC)c(OC)c2)cc1)c1ccc(O)cc1 (mixture of isomers) [Compound 28, (E)-N-(2-{4-[(E/Z)-1,2-Bis-(4-hydroxyphenyl)but-1-enyl]-phenoxy}ethyl)-3-(3-hydroxy-4-methoxyphenyl)-N-methyl-2-(3,4,5-trimethoxyphenyl)acrylamide]",IC50,[1],2480 nM
same,% Cell Death at 10 μM,[2],15%
same,GI50,"MOLT-4; Homo sapiens, five-dose screen",1520 nM
same,GI% (10^−5 M),MOLT-4; one-dose 10 µM,64.31%
same,GI% (10^−5 M),A549/ATCC; one-dose 10 µM,86.97%
same,GI50,"A549/ATCC; Homo sapiens, five-dose screen",2880 nM
same,GI% (10^−5 M),HOP-92; one-dose 10 µM,86.19%
same,GI50,"HOP-92; Homo sapiens, five-dose screen",764 nM
same,GI50,"NCI-H332M; Homo sapiens, five-dose screen",2020 nM
same,GI% (10^−5 M),NCI-H332M; one-dose 10 µM,81.7%
same,GI50,"NCI-H460; Homo sapiens, five-dose screen",1420 nM
same,GI% (10^−5 M),NCI-H460; one-dose 10 µM,98% and 98.38%
same,GI50,NCI-H552; [3],1390 nM
same,GI% (10^−5 M),NCI-H552; one-dose 10 µM,"100 ^d,h %"
same,GI% (10^−5 M),"COLO 205; COLO 205 (Colon Cancer), one-dose 10 µM","100 ^d,i %"
same,GI50,"COLO 205; Homo sapiens, COLO 205",2150 nM
same,LC50,"COLO 205; Homo sapiens, COLO 205, five-dose screen",26200 nM
same,GI% (10^−5 M),HCT-2998; one-dose 10 µM,"100 ^d,j %"
same,GI50,HCT-2998; [3],1250 nM
same,GI% (10^−5 M),HCT-116; one-dose 10 µM,98% and 97.57%
same,GI50,"HCT-116; Homo sapiens, five-dose screen",1800 nM
same,GI50,"KM12; Homo sapiens, five-dose screen",1260 nM
same,GI% (10^−5 M),KM12; one-dose 10 µM,"100 ^d,m %"
same,GI50,"SF-268; Homo sapiens, five-dose screen",1690 nM
same,GI% (10^−5 M),SF-268; one-dose 10 µM,84.22%
same,GI50,"PC-3; Homo sapiens, five-dose screen",1730 nM
same,GI% (10^−5 M),PC-3; one-dose 10 µM,86.32%
same,GI% (10^−5 M),DU-145; one-dose 10 µM,"100 ^d,o %"
same,GI50,"DU-145; Homo sapiens, five-dose screen",1660 nM
same,GI% (10^−5 M),SK-MEL-28,1.65%
same,GI% (10^−5 M),OVCAR-3,1%
same,GI% (10^−5 M),OVCAR-4,2.59%
same,GI% (10^−5 M),OVCAR-5,3.21%
same,GI% (10^−5 M),786-0,1.91%
same,IC50,"MCF-7; MCF7, read-out: GI50 (IC50)",9.5 nM
same,CC50,"MCF-7; MCF7, MCF-7, five-dose screen, read-out: LC50 (the source's name)",> 50000 nM
same,GI% (10^−5 M),BT-549,1.12%
same,GI% (10^−5 M),MDA-MB-468,1.12%

# Reference: paper PMC5344255, “Design, Synthesis and Biochemical Evaluation of Novel Selective Estrogen Receptor Ligand Conjugates Incorporating an Endoxifen-Combretastatin Hybrid Scaffold” (Biomedicines, 2016)
